The target of the assay is Human Factor D (Homo sapiens (Human), UniProt P00746). As to the kind of experiment: Human Factor D assay. The class given is biochemical. To be noted: Human Factor D 80 nM, substrate Z-L-Lys-SBzl, A405; read-out: IC50 (Stars). As to the method: The assay of Example 3 was used to determine the IC50's of the compounds. Other standard factor D inhibition assays are also available.
Human Factor D (purified from human serum, Complement Technology, Inc.) at 80 nM final concentration is incubated with test compound at various concentrations for 5 min at room temperature in 50 mM Tris, 1M NaCl, pH 7.5. A synthetic substrate Z-L-Lys-SBzI and DTNB (Ellman's reagent) are added to final concentrations of 100 μM each. Absorbance at 405 nm (A405) is recorded at 30 second intervals for 30 min using a microplate spectrophotometer. IC50 values are calculated by nonlinear regression of complement Factor D reaction rates as a function of test compound concentration.

Molecules are shown by their SMILES. Where only a bound is given, the exact number is not on record here.

Human Factor D, sequence (P00746 26-253): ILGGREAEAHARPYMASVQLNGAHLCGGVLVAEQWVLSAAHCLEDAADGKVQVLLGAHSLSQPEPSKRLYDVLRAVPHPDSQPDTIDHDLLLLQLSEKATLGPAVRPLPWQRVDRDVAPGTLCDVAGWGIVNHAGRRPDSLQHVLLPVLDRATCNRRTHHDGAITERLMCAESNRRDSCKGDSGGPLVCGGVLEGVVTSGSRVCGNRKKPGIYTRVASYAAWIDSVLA

Take `CC(=O)c1nn2c3c(cc(-c4cnc(C)nc4)cc13)CCCCCCC(=O)NC[C@@]13C[C@@H](C(=O)Nc4nc(OC(F)(F)F)ccc4C)N(C(=O)C2)[C@@H]1C3` [Compound 1, (4^1R,4^3S,4^5R)-1^3-acetyl-N-(3-methyl-6-(trifluoromethoxy)pyridin-2-yl)-1^5-(2-methylpyrimidin-5-yl)-3,7-dioxo-1^1H-4^2,6-diaza-1(1,7)-indazola-4(2,5)-bicyclo[3.1.0]hexanacyclotridecaphane-4^3-carboxamide]: the IC50 (in general, the concentration that gives 50% inhibition) was less than 1000 nM. Regarding `CC(=O)c1nn2c3c(cc(-c4cnc(C)nc4)cc13)CCCCCCC(=O)NC[C@@]13C[C@@H](C(=O)Nc4nc(Br)ccc4CN4CC(F)C4)N(C(=O)C2)[C@@H]1C3` [Compound 2, (4^1R,4^3S,4^5R)-1^3-acetyl-N-(6-bromo-3-((3-fluoroazetidin-1-yl)methyl)pyridin-2-yl)-1^5-(2-methylpyrimidin-5-yl)-3,7-dioxo-1^1H-4^2,6-diaza-1(1,7)-indazola-4(2,5)-bicyclo[3.1.0]hexanacyclotridecaphane-4^3-carboxamide], the IC50 was less than 1000 nM. As for `CC(=O)c1nn2c3c(cc(N4CCCC4)cc13)CCCCCCC(=O)NC[C@@]13C[C@@H](C(=O)Nc4nc(C(F)(F)F)ccc4C)N(C(=O)C2)[C@@H]1C3` [Compound 3, (4^1R,4^3S,4^5R)-1^3-acetyl-N-(3-methyl-6-(trifluoromethyl)pyridin-2-yl)-3,7-dioxo-1^5-(pyrrolidin-l-yl)-1^1H-4^2,6-diaza-1(1,7)-indazola-4(2,5)-bicyclo[3.1.0]hexanacyclotridecaphane-4^3-carboxamide], the figure is less than 1000 nM; as for `CC(=O)c1nn2c3c(cc(C4CC4)cc13)CCCCCCC(=O)NC[C@@]13C[C@@H](C(=O)Nc4nc(C(F)(F)F)ccc4C)N(C(=O)C2)[C@@H]1C3` [Compound 4, (4^1R,4^3S,4^5R)-1^3-acetyl-1^5-cyclopropyl-N-(3-methyl-6-(trifluoromethyl)pyridin-2-yl)-3,7-dioxo-1^1H-4^2,6-diaza-1(1,7)-indazola-4(2,5)-bicyclo[3.1.0]hexanacyclotridecaphane-4^3-carboxamide], less than 1000 nM. As for `CC(=O)c1nn2c3c(cc(-c4nnc(C)o4)cc13)CCCCCCC(=O)NC[C@@]13C[C@@H](C(=O)Nc4nc(C(F)(F)F)ccc4C)N(C(=O)C2)[C@@H]1C3` [Compound 5, (4^1R,4^3S,4^5R)-1^3-acetyl-1^5-(5-methyl-1,3,4-oxadiazol-2-yl)-N-(3-methyl-6-(trifluoromethyl)pyridin-2-yl)-3,7-dioxo-1^1H-4^2,6-diaza-1(1,7)-indazola-4(2,5)-bicyclo[3.1.0]hexanacyclotridecaphane-4^3-carboxamide], the figure is less than 1000 nM; as for `COc1cc2c3c(c1)c(C(C)=O)nn3CC(=O)N1[C@H](C(=O)Nc3nc(C(F)(F)F)ccc3C)C[C@@]3(CNC(=O)CCCCCC2)C[C@@H]13` [Compound 6, (4^1R,4^3S,4^5R)-1^3-acetyl-1^5-methoxy-N-(3-methyl-6-(trifluoromethyl)pyridin-2-yl)-3,7-dioxo-1^1H-4^2,6-diaza-1(1,7)-indazola-4(2,5)-bicyclo[3.1.0]hexanacyclotridecaphane-4^3-carboxamide], less than 1000 nM; as for `CC(=O)c1nn2c3c(cc(Oc4ncc(C)cn4)cc13)CCCCCC(=O)NC[C@@]13C[C@@H](C(=O)Nc4nc(C(F)(F)F)ccc4C)N(C(=O)C2)[C@@H]1C3` [Compound 7, (4^1R,4^3S,4^5R)-1^3-acetyl-N-(3-methyl-6-(trifluoromethyl)pyridin-2-yl)-1^5-((5-methylpyrimidin-2-yl)oxy)-3,7-dioxo-1^1H-4^2,6-diaza-1(1,7)-indazola-4(2,5)-bicyclo[3.1.0]hexanacyclododecaphane-4^3-carboxamide], less than 1000 nM.
